What was measured:
[1] = system: human-derived tracheal/bronchial epithelial cells (EpiAirway™ Tissue model system); assay: Transepithelial electrical resistance (TER), EpiAirway tissue model; assay type: cell-based
Protocol: EpiAirway™ culture membranes were received the day before the experiments started. They are shipped in phenol red-free and hydrocortisone-free Dulbecco's Modified Eagle's Medium (DMEM). The cells are ciliated and psudostratefied, grown to confluency on Millipore Multiscreen Caco-2 96-well assay system comprised of a polycarbonate filter system. Upon receipt, the insert system will be stored unopened at 4° C. and/or cultured in 250 μl basal media per well (phenol red-free and hydrocortisone-free Dulbecco's Modified Eagle's Medium (DMEM)) at 37° C./5% CO2 for 24 hours before use.
TER measurements were taken using the REMS Autosampler (World Precision Instruments, Sarasota, Fla.) with the electrode leads. The electrodes and a tissue culture blank insert will be equilibrated for at least 20 minutes in MatTek Air-100™ medium with the power off prior to checking calibration. The background resistance of the insert system has been established by multiple measurements of a blank insert plate and the same value was used for each test on the platform. Time zero TER (TER0) was measured before incubation of the inserts with the test formulation. The top electrode will be as adjusted so that it is close to, but not making contact with, the top surface of the insert membrane. Background resistance of the blank insert should be about 5-20 ohms. For each TER determination, 100 μl of MatTek Air-100™ medium was added to the insert and 250 μl in the basal well followed by placement in the Endohm chamber. All TER values are reported as a function of the surface area of the tissue. Resistance was expressed as both Ohms*cm^2 and percent original TER value.
TER values were calculated as: [formula] [formula] Formula terms for TER calculation defined: […]
A decrease in TER value relative to the control value indicates a decrease in cell membrane resistance and an increase in mucosal epithelial cell permeability.
(§1) Of the total 300 μl volume for each test formulation, only a 20 μl sample was applied to the human-derived tracheal/bronchial epithelial cells (EpiAirway™ Tissue model system) in order to assess the effect each test formulation had on TER, LDH and sample permeation.

[2] = system: human-derived tracheal/bronchial epithelial cells (EpiAirway™ Tissue model system); assay: FITC-Dextran (FD3) permeation assay, EpiAirway tissue model; assay type: cell-based; settings: 25 μM peptide, 1 h at 37° C.
Protocol: A FITC labeled dextran with a molecular weight 3000 (FD3) was used to assess the efficacy of individual TJMP on epithelial cell monolayer permeation. The tissue insert plates were transferred to a 96-well receiver plate containing 200 μl of DPBS++ as basal media. The apical surface of each tissue culture insert was incubated with a 20 μl sample of a single test formulation (refer to Table 4 in Example 2 for details of test formulations) for one hour at 37° C. in the dark on a shaker (˜100 rpm). Following the 1 hour incubation period, underlying basal media samples were taken from each tissue culture insert and temporarily stored in the dark at room temperature until FD3 levels were quantified by fluorescence spectroscopy. For FD3 measurements, a 150 μl of basal media sample was transferred to a black, clear bottom 96-well plate. Fluorescence emission at 528/20 following excitation at 485/20 were measured using a FLx800 fluorescence plate reader from Biotek Instruments.
Permeation was calculated as: [formula] [formula] Formula terms for permeation defined: […]
as §1

[3] = Intranasal PYY pharmacokinetics in rabbits with PN159 or small molecule enhancers (Example 5); assay type: in vivo, New Zealand White rabbits; settings: for PYY plasma concentration: mean of 4 rabbits; for AUCINF (Mean) / AUClast (Mean) / Cmax (Mean) / Tmax (Mean) / t½ (Mean): PYY in plasma, rabbit; for Relative AUC last / Relative Cmax: PYY, rabbit intranasal
Protocol: Twenty male New Zealand White rabbits age 3-6 months and weighing 2.1-3.0 kg were randomly assigned into one of 5 treatment groups with four animals per group. Test animals were dosed at 15 μl/kg and intranasally via pipette. Table 6 below indicates the composition of five different dose groups.
For dosing group 1 (see Table 6) a clinical formulation of PYY including small molecule permeation enhancers was used. The small molecule enhancers in these studies included methyl-β-cyclodextrin, phosphatidylcholine didecanoyl (DDPC), and/or EDTA. Dosing group 2 received PYY dissolved in phosphate buffered saline (PBS). For dosing groups 3-5, various concentrations of PN159 were added to dosing group 2, so that each of dosing groups 3 to 5 consisted of PYY, PN159, and PBS.
Serial blood samples (about 2 ml each) were collected by direct venipuncture from a marginal ear vein into blood collection tubes containing EDTA as an anticoagulant. Blood samples were collected at 0, 2.5, 5, 10, 15, 30, 45, 60, and 120 minutes post-dosing. After collection of the blood, the tubes were gently rocked several times for anti-coagulation, and then 50 μl aprotinin solution was added. The blood was centrifuged at approximately 1,600×g for 15 minutes at approximately 4° C., and plasma samples were dispensed into duplicate aliquots and stored frozen at approximately −70° C.

[4] = Intranasal PYY(3-36) pharmacokinetics in rabbits with various TJMPs (Example 10); assay type: in vivo, New Zealand White rabbits; settings: rabbit
Source text: The tubes were chilled until […].

[5] = Group 3: PYY 205 μg/kg intranasal with 25 μM PN159
[6] = Group 4: PYY 205 μg/kg intranasal with 50 μM PN159
[7] = Group 5: PYY 205 μg/kg intranasal with 100 μM PN159
[8] = Group 3 (PN159, 25 μm) compared with Group 2 (no enhancer)
[9] = Group 4 (PN159, 50 μm) compared with Group 2 (no enhancer)
[10] = Group 5 (PN159, 100 μm) compared with Group 2 (no enhancer)
[11] = PYY(3-36) in plasma, 205 μg/kg intranasal with the named TJMP (concentration per Table 11, 50-1000 μM) or PBS, mean

CC(C)C[C@H](NC(=O)[C@H](C)NC(=O)[C@H](CCCCN)NC(=O)[C@H](CC(C)C)NC(=O)[C@H](C)NC(=O)[C@H](CC(C)C)NC(=O)[C@H](CCCCN)NC(=O)[C@H](CC(C)C)NC(=O)[C@H](C)NC(=O)[C@H](CC(C)C)NC(=O)[C@@H](N)CCCCN)C(=O)N[C@@H](CCCCN)C(=O)N[C@@H](C)C(=O)N[C@@H](C)C(=O)N[C@@H](CC(C)C)C(=O)N[C@@H](CCCCN)C(=O)N[C@@H](CC(C)C)C(=O)N[C@@H](C)C(N)=O [PN159]
% T0 TER ([1]; 25 μM peptide, pH 7, 20 μl applied): 7%
TER in the presence of galantamine ([1]; 25, 50, 100 μM PN159 with 40 mg/ml galantamine lactate, pH 5.0): reduced TER
% FD3 Permeation [2]: 8%
PYY plasma concentration ([3]; Group 3: PYY 205 μg/kg intranasal with 25 μM PN159, 0 min): 228.675
PYY plasma concentration ([3]; Group 3: PYY 205 μg/kg intranasal with 25 μM PN159, 2.5 min): 526.375
PYY plasma concentration ([3]; Group 3: PYY 205 μg/kg intranasal with 25 μM PN159, 5 min): 1430.15
PYY plasma concentration ([3]; Group 3: PYY 205 μg/kg intranasal with 25 μM PN159, 10 min): 6521.7
PYY plasma concentration ([3]; Group 3: PYY 205 μg/kg intranasal with 25 μM PN159, 15 min): 12563.075
PYY plasma concentration ([3]; Group 3: PYY 205 μg/kg intranasal with 25 μM PN159, 30 min): 15222.6
PYY plasma concentration ([3]; Group 3: PYY 205 μg/kg intranasal with 25 μM PN159, 45 min): 9081.125
PYY plasma concentration ([3]; Group 3: PYY 205 μg/kg intranasal with 25 μM PN159, 60 min): 4843.15
PYY plasma concentration ([3]; Group 3: PYY 205 μg/kg intranasal with 25 μM PN159, 120 min): 1224.2
PYY plasma concentration ([3]; Group 4: PYY 205 μg/kg intranasal with 50 μM PN159, 0 min): 424.4
PYY plasma concentration ([3]; Group 4: PYY 205 μg/kg intranasal with 50 μM PN159, 2.5 min): 749.975
PYY plasma concentration ([3]; Group 4: PYY 205 μg/kg intranasal with 50 μM PN159, 5 min): 1293.4
PYY plasma concentration ([3]; Group 4: PYY 205 μg/kg intranasal with 50 μM PN159, 10 min): 12517.2
PYY plasma concentration ([3]; Group 4: PYY 205 μg/kg intranasal with 50 μM PN159, 15 min): 34455.3
PYY plasma concentration ([3]; Group 4: PYY 205 μg/kg intranasal with 50 μM PN159, 30 min): 35294.375
PYY plasma concentration ([3]; Group 4: PYY 205 μg/kg intranasal with 50 μM PN159, 45 min): 21582.225
PYY plasma concentration ([3]; Group 4: PYY 205 μg/kg intranasal with 50 μM PN159, 60 min): 9461.925
PYY plasma concentration ([3]; Group 4: PYY 205 μg/kg intranasal with 50 μM PN159, 120 min): 2337.775
PYY plasma concentration ([3]; Group 5: PYY 205 μg/kg intranasal with 100 μM PN159, 0 min): 294.225
PYY plasma concentration ([3]; Group 5: PYY 205 μg/kg intranasal with 100 μM PN159, 2.5 min): 1748.225
PYY plasma concentration ([3]; Group 5: PYY 205 μg/kg intranasal with 100 μM PN159, 5 min): 3088.2
PYY plasma concentration ([3]; Group 5: PYY 205 μg/kg intranasal with 100 μM PN159, 10 min): 14486.6
PYY plasma concentration ([3]; Group 5: PYY 205 μg/kg intranasal with 100 μM PN159, 15 min): 20882.725
PYY plasma concentration ([3]; Group 5: PYY 205 μg/kg intranasal with 100 μM PN159, 30 min): 25470.475
PYY plasma concentration ([3]; Group 5: PYY 205 μg/kg intranasal with 100 μM PN159, 45 min): 16499.55
PYY plasma concentration ([3]; Group 5: PYY 205 μg/kg intranasal with 100 μM PN159, 60 min): 10676.625
PYY plasma concentration ([3]; Group 5: PYY 205 μg/kg intranasal with 100 μM PN159, 120 min): 1891.275
AUCINF (Mean) [3, 5]: 796354.7 pg·min/mL
AUClast (Mean) [3, 5]: 748104.1 pg·min/mL
Cmax (Mean) [3, 5]: 15.53395 ng/mL
Tmax (Mean) [3, 5]: 22.5 min
t½ (Mean) [3, 5]: 24.8467 min
AUCINF (Mean) [3, 6]: 1787348 pg·min/mL
AUClast (Mean) [3, 6]: 1692499 pg·min/mL
Cmax (Mean) [3, 6]: 40.99553 ng/mL
Tmax (Mean) [3, 6]: 26.25 min
t½ (Mean) [3, 6]: 25.5355 min
AUCINF (Mean) [3, 7]: 1518949 pg·min/mL
AUClast (Mean) [3, 7]: 1384241 pg·min/mL
Cmax (Mean) [3, 7]: 27.9744 ng/mL
Tmax (Mean) [3, 7]: 33.75 min
t½ (Mean) [3, 7]: 20.4628 min
Relative AUC last [3, 8]: 21×
Relative Cmax [3, 8]: 30×
Relative AUC last [3, 9]: 46×
Relative Cmax [3, 9]: 79×
Relative AUC last [3, 10]: 38×
Relative Cmax [3, 10]: 54×
In Vivo Tier Ranking ([4]; PYY(3-36) 205 μg/kg intranasal, TJMP concentration per Table 11: PN159 50 μM, PN161, PN202 100 μM, PN27 250 μM, PN58, PN73, PN228 500 μM, PN183, PN556 1000 μM): I
AUCinf [4, 11]: 1.55e+06 pg·min/mL
AUClast [4, 11]: 1.52e+06 pg·min/mL
Cmax [4, 11]: 30.2 ng/mL
T1/2 [4, 11]: 30.2 min
Tmax [4, 11]: 17.0a min

— patent publication US20070154449A1, “TIGHT JUNCTION MODULATING PEPTIDES FOR ENHANCED MUCOSAL DELIVERY OF THERAPEUTIC COMPOUNDS” (Nastech Pharmaceutical Company Inc., priority 2005, published 2007)
